The source of these data is patent US20240294595A1, “GLYCOPEPTIDES AND USES THEREOF” (Arizona Board of Regents on Behalf of the University of …, priority 2013, published 2024).

“Also recorded” adds a separate entry of the source. Where no end group is shown, it is not given here.

Data set [1] concerns 6-OHDA hemi-parkinsonian rat model. Put plainly: mild (25%) 6-OHDA hemi-parkinsonian rat model (study 1). The class given is in vivo. The text has this: The classical mild progressive 6-OHDA hemi-parkinsonian rat model was used to assess the neuroprotective potential of 2LS98Lac (FIGS. 9A,B). Briefly, the rats were given unilateral lesions by treatment with 6-OHDA. Then, the rats were challenged with a dopaminergic receptor agonist (amphetamine in our case) and assessed for their turning behavior (Kelly et al., 1975; Torres and Dunnet, 2007; DaCunha et al., 2008) The observed rotational behavior is likely due to the denervation of dopaminergic neurons and subsequent hypersensitivity of the dopaminergic receptors in the lesioned area of the brain. In the first experiment, mild lesions (25%) were induced (FIG. 9A) to simulate the early stages of PD, and amphetamine was used to induce […] rotations. Rats were treated with either vehicle or 2LS98Lac (15 mg/kg, i.p.) 6 h prior to lesioning and 24 h post-lesion. […] Following behavioral analysis, the number of tyrosine hydroxylase (TH)-positive neurons in the SNpc of both vehicle-treated and 2LS98Lac-treated animals was determined using immunohistochemical staining and unbiased stereology. […] Both behavioral and histological data obtained from these experiments indicate that 2LS98Lac successfully elicited neuroprotection.

The test system is the same in data set [2]. Put plainly: moderate (40%) 6-OHDA hemi-parkinsonian rat model (study 2). The class given is in vivo. The text has this:
In a follow-up study, the neuroprotective potential of 2LS98Lac was also probed in rats with more severe (40%) 6-OHDA-induced lesions and three treatment-injections with 2LS98Lac (FIG. 9B).
Specifically, 6-OHDA did lead to reduction of % area IBA-1/cell (F3-24=4.463, p=0.0140; FIG. 9K), process length/cell (F3-24=5.925, p=0.0057; FIG. 9L), branches/cell (F3-24=5.845, p=0.0042; FIG. 9M), and endpoints/cell (F3-24=2.943, p=0.0286; FIG. 9N) on the lesioned side. Treatment with 2LS98Lac did lead to an increase of the parameters on the lesioned side back to levels on the intact side. […] Example images for the nigral IHC for TH and for IBA-1, as well as the semi-quantitative western analyses of striatal TH and beta-actin are presented in FIGS. 10A-D.

The conditions of data set [3]: rat, serum.
The target in data set [4] is T1, PAC1 (Homo sapiens, UniProt P41586).
T1 sequence (P41586 21-468): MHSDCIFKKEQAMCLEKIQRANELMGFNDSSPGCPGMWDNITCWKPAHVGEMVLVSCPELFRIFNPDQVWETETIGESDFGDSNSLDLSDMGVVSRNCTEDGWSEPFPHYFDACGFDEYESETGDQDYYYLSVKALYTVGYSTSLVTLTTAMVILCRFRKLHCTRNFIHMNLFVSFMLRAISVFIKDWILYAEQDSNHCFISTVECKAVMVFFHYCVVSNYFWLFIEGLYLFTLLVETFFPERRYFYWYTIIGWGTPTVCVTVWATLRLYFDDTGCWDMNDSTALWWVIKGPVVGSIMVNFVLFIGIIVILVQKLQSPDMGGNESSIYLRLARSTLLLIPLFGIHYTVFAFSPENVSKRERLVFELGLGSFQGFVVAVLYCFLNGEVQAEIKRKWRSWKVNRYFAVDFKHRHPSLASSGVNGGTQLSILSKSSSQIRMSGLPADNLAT
Conditions: previously reported; cited from earlier work.

The target in data set [5] is T1, PAC1. Put plainly: PAC1-CHO calcium flux, FLIPR antagonist mode versus PACAP1-27. In kind it is cell-based. Also on record: host or cells: CHO (clonal line PAC1-CHO). As for the experimental part:
The construct was electroporated into Chinese Hamster Ovary (CHO) cells, and selected for with 500 μg/mL of G418. The resulting population was screened for high expressing clones, and one such clone selected for further analysis. […] This cell line was used for all molecular pharmacology experiments. […] All molecular pharmacology experiments were carried out using a FLIPR Tetra from Molecular Devices (Sunnyvale, CA), set to image calcium flux using the manufacturer's recommended settings and protocols. […] The cells were recovered overnight in growth medium (as above). The next day, the growth medium was replaced with Calcium 6 dye (Molecular Devices) using the manufacturer recommended buffer with 2.5 mM probenecid. […] The resulting calcium flux was recorded, and the maximum-minimum response over the entire observation time calculated and reported as the mean±SEM (4 wells per point). For antagonist mode experiments, a concentration curve (variable concentration mode) or fixed amount (fixed concentration mode) of antagonist was added to the cells, and allowed to equilibrate for 2 minutes. […] The resulting data was analyzed using a Gaddum/Schild EC50 shift model, (Schild, 1957, Gaddum, 1957) designed to analyze competitive antagonism. (Lazareno and Birdsall, 1993) The data output was the pA2 (nM) and the Schild Slope, a measure of how closely the experimental data fits the operational model of competitive antagonism (Prism). For all analyses, each independent experiment performed in quadruplicate is considered to be a sample size of 1. The pharmacology values are calculated separately from each experiment, then combined and reported as the mean±SEM for the entire set of experiments.
For orientation: Calcium flux is commonly read through the fluorescence of an indicator in the cells.

The subject of data set [6] is PC12 cells. Description: PC12 cell morphology / neurite outgrowth. In kind it is cell-based. The conditions noted are these: 100 nM. As for the experimental part:
PC12 cells are non-adherent cells, and in spite of using the poly-D-Lysine coated plates, the majority of the cells remained suspended. During the media exchange many of the cells were removed with the spent media. The remaining cells could be visually evaluated for qualitative morphological changes at the end of the treatment period, but meaningful cell quantification could not be done reliably using this approach.
FIGS. 5A-5D show PC12 Cell Morphology after Vehicle vs PACAP Treatment (100 nM). […] In all cases the process outgrowths on the treated cells were greater than 2× the cell body width
The PC12 cells were cultured in RPMI containing 5% heat inactivated fetal bovine serum and 10% horse serum in the presence of 100 units/mL penicillin and 100 microgram/mL streptomycin. The cells were plated on poly-D-Lysine coated 6-well tissue culture plates at a density of 150,000 cells per well in 2 mL media. After 48 hours at 37° C. in 5% CO2 atmosphere, media exchange was performed and plates were dosed, using the peptide diluent (water) for the control samples. […] Cell images of each treatment group were captured and compared to the control cells to screen for differentiation and cell body volume increases. Cells having neurite-like process outgrowth were noted and photographed. The neurite-like outgrowth was deemed positive if its length was at least two times the width of the cell body.

Data set [7] can be described thus: stability in mouse serum at 37° C. (FI-MSn). The class given is in vitro ADME. Conditions: mouse serum at 37° C. The text has this: Chemical stability of the glycopeptides in vivo plays an important role in the deliverability of the drugs to the site(s) of action within the brain. It is also important to know what the chemical or metabolic instabilities are in order to inform the drug design process. […] Data were fitted using a single exponential decay model (R^2>0.71, in all cases).
The overall process was as follows: Flow-injection tandem mass spectrometry (FI-MS^n) was used to observe the degradation of the peptides and glycopeptides with a Thermo LCQ with electrospray ionization (ESI). The technique involved injection of a sample bolus of material in mouse serum via a six port valve with fluid flow delivered via a syringe pump, and subsequent electrospray ionization (ESI) followed by mass spectral analysis. Samples were diluted to a concentration of ˜5 μM of each PACAP analogue, and were incubated at 37° C. for times varying from 1 to 60 minutes. After samples had been incubated for the prescribed amount of time they were prepared for mass spectrometry analysis by withdrawing 10 microliters of solution and spiking with 1 microliter of a 10 μM solution of peptide internal standard (angiotensin II) in 50% acetic acid and subjecting them to a standard C18 zip tip desalting. These solutions, once eluted from the zip tip were diluted to 100 μL in 50:50 acetonitrile/water with 0.1% formic acid. Tandem mass spectrometry analysis (MS^3) was conducted to yield specific, quantitative signals proportional to the amount of PACAP analogue at each time point. This technique was also used with microdiasylate samples from a mouse after i.p. administration of PACAP1-27-S-G.

The mark [8] stands for this setting: lesioned side, treatment vs vehicle.
Where [9] appears, read: three treatment-injections, vs vehicle.
The mark [10] stands for this setting: treatment vs vehicle, listed as 2LS98lac.

For the compound “2LS98Lac: PACAP glycopeptide; 2LS98 = HSDGIFTDSYSRYRKQLAVKKYLAAVL-Ser-CONH2 (SEQ ID NO: 7), lactose (HSDGIFTDSYSRYRKQLAVKKYLAAVLS; not fully specified; lactose glycosylation, C-terminal amide) [Compound 2LS98Lac]”, the “cumulative amphetamine-induced contralateral rotations” value in data set [1] (15 mg/kg i.p. 6 h prior and 24 h post-lesion, vs vehicle) is listed as “significantly decreased; also recorded: reduces 6-OHDA-induced lesion damage”. The “TH-positive neurons in the SNpc, lesioned vs intact side” value in data set [1] (15 mg/kg i.p., mild lesion) is “neuronal cell death was attenuated”. The “6-OHDA-induced change in microglia morphologic phenotype” value in data set [2] (lesioned side) is “fully reversed”. Also, in data set [2] (setting [8]), the “% area IBA-1/cell” value is recorded as “significant increase”, the branches/cell entry was “significant increase”, the endpoints/cell entry is given as “trend toward increase” and the process length/cell entry is given as “significant increase”. For the same compound, the “6-OHDA-induced change in microglia morphologic phenotype” value in data set [2] (lesioned side, listed as 2LS98lac) is on record as “rescues 6-OHDA induced morphological changes to microglia”. Further, the “nigral TH-cell count on the lesioned side” value in data set [2] (moderate lesion) was 9,244 cells. For the same compound, the “mean increase of nigral TH-cell count on the lesioned side vs vehicle group” value in data set [2] (not significant (p=0.2208)) worked out at 850 cells. Moreover, in data set [2] (setting [9]), the “amphetamine-induced rotations at 2 weeks post-lesion” value is on record as “did not see a difference; also recorded: does not reduce 6-OHDA-induced lesion damage” and the “amphetamine-induced rotations at 4 weeks post-lesion” value is listed as “did not see a difference; also recorded: does not reduce 6-OHDA-induced lesion damage”. Besides, in data set [2] (treatment vs vehicle), the “striatal DA content” value is on record as “no significant difference” and the “striatal TH (western analysis)” value is given as “no significant difference”. Also, in data set [2] (setting [10]), the “striatal DA content” value is on record as “did not change” and the “striatal TH (western analysis)” value is reported as “did not change”.

As usually defined, the half-life is the time needed for the level to fall by half in the phase considered. Lower therefore signals fast loss. In data set [3], `CC[C@H](C)[C@H](NC(=O)CNC(=O)[C@H](CC(=O)O)NC(=O)[C@H](CO)NC(=O)[C@@H](N)Cc1c[nH]cn1)C(=O)N[C@@H](Cc1ccccc1)C(=O)N[C@H](C(=O)N[C@@H](CC(=O)O)C(=O)N[C@@H](CO)C(=O)N[C@@H](Cc1ccc(O)cc1)C(=O)N[C@@H](CO)C(=O)N[C@@H](CCCNC(=N)N)C(=O)N[C@@H](Cc1ccc(O)cc1)C(=O)N[C@@H](CCCNC(=N)N)C(=O)N[C@@H](CCCCN)C(=O)N[C@@H](CCC(N)=O)C(=O)N[C@@H](CC(C)C)C(=O)N[C@@H](C)C(=O)N[C@H](C(=O)N[C@@H](CCCCN)C(=O)N[C@@H](CCCCN)C(=O)N[C@@H](Cc1ccc(O)cc1)C(=O)N[C@@H](CC(C)C)C(=O)N[C@@H](C)C(=O)N[C@@H](C)C(=O)N[C@H](C(=O)N[C@@H](CC(C)C)C(=O)N[C@@H](CO[C@@H]1O[C@H](CO)[C@@H](O[C@@H]2O[C@H](CO)[C@H](O)[C@H](O)[C@H]2O)[C@H](O)[C@H]1O)C(N)=O)C(C)C)C(C)C)[C@@H](C)O` [Compound 2LS80Lac] displayed a half-life of over 60 min.

Usually Ki stands for a measure of affinity in units of concentration, obtained from inhibition or displacement. As for `CSCC[C@H](NC(=O)[C@H](CCC(N)=O)NC(=O)[C@H](CCCCN)NC(=O)[C@H](CCCNC(=N)N)NC(=O)[C@H](Cc1ccc(O)cc1)NC(=O)[C@H](CCCNC(=N)N)NC(=O)[C@H](CO)NC(=O)[C@H](Cc1ccc(O)cc1)NC(=O)[C@H](CO)NC(=O)[C@H](CC(=O)O)NC(=O)[C@@H](NC(=O)[C@@H](N)Cc1ccccc1)[C@@H](C)O)C(=O)N[C@@H](C)C(=O)N[C@H](C(=O)N[C@@H](CCCCN)C(=O)N[C@@H](CCCCN)C(=O)N[C@@H](Cc1ccc(O)cc1)C(=O)N[C@@H](CC(C)C)C(=O)N[C@@H](C)C(=O)N[C@@H](C)C(=O)N[C@H](C(=O)N[C@@H](CC(C)C)C(=O)NCC(=O)N[C@@H](CCCCN)C(=O)N[C@@H](CCCNC(=N)N)C(=O)N[C@@H](Cc1ccc(O)cc1)C(=O)N[C@@H](CCCCN)C(=O)N[C@@H](CCC(N)=O)C(=O)N[C@@H](CCCNC(=N)N)C(=O)N[C@H](C(=O)N[C@@H](CCCCN)C(=O)N[C@@H](CC(N)=O)C(=O)N[C@@H](CCCCN)C(N)=O)C(C)C)C(C)C)C(C)C` [PACAP6-38], in data set [4], the Ki was 1.5 nM. In addition, the Kb in data set [5] (Gaddum/Schild EC50 shift model, read-out: pA2 (converted)) is 201 ± 55.4 nM. For the same compound, the IC50 in data set [5] (read-out: antagonism potency (IC50), variable concentration mode) is over 333 nM.

Consider “PACAP1-27-S-L: the corresponding lactoside of PACAP1-27 (HSDGIFTDSYSRYRKQMAVKKYLAAVLS; not fully specified)”, for which the cell body volumes result in data set [6] is given as “showed increases”. Also, the “degradation in mouse serum” value in data set [7] is listed as “degraded over 30 min”.

For “PACAP6-27: truncated putative antagonist (FTDSYSRYRKQMAVKKYLAAVL; ends and bridges not checked)”, the Ki in data set [4] was 60 nM. Further, the “shift of PACAP1-27 agonist curves, fixed concentration mode” value in data set [5] (fixed antagonist concentrations up to 1 μM) is given as “no detectable shifts in the agonist curves; also recorded: caused no shift in the agonist curves”. The “antagonist activity, variable concentration mode” value in data set [5] (versus 5 nM PACAP1-27, concentration up to 1 μM) is listed as “no significant antagonist activity”.
